Bounds are passed on as bounds.

The target of one data set is T1, MAO-B (Homo sapiens, UniProt P27338).
T1 sequence (P27338 1-520): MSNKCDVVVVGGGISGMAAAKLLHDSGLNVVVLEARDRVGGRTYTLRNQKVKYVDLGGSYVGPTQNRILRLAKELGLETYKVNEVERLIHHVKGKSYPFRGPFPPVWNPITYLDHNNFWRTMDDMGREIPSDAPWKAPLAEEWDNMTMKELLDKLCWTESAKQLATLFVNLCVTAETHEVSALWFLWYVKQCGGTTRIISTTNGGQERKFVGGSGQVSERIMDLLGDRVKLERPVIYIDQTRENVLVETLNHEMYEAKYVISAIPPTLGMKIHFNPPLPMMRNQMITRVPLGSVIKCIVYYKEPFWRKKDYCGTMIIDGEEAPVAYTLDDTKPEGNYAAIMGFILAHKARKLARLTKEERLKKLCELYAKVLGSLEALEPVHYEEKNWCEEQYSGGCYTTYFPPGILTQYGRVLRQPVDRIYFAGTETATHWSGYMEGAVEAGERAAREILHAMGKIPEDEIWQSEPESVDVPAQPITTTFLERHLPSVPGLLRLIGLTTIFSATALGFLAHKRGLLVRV
Description: Human MAO-B inhibition assay. It is filed as biochemical. To be noted: for inhibition at 0.1 µM: 100 nM, read-out: Inhibitory rate ± SEM (%, 100 nM); for inhibition at 1 µM: read-out: Inhibitory rate ± SEM (%, 1 μM); for IC50: ± SEM, read-out: IC50 against MAO-B.

A short description of data set [1]: pKa determination by spectrophotometric titration. To be noted: 0.1 M KCl aqueous solution, pH range 2.0–10.5, 25 °C.
A short description of data set [2]: Iron-chelating activity test: affinity constants for Fe3+ and pFe3+. To be noted: for Log β2 / Log β3: KCl (0.1 M): DMSO = 3:2 (v/v); for Log β1: KCl (0.1 M): DMSO = 9:1 (v/v); for pFe^3+: pH 7.4, [Fe3+]total = 10^−6 M, [ligand]total = 10^−5 M, calculated from pKa and log β measured in KCl/DMSO.

Regarding `Cc1c(O)c(=O)ccn1CCNC(=O)c1ccccc1` [Compound 8a], the melting point (usually the temperature of the solid-liquid transition) was 211 to 213 °C. Besides, on MAO-B, the inhibition at 0.1 µM was above 50%, the inhibition at 1 µM was 77.65 ± 0.6% and the concentration for half-maximal inhibition (IC50) (usually the point on the concentration scale where inhibition reaches its midpoint) worked out at 0.079 ± 0.0003 µM. Further, the pKa (in general, the negative logarithm of the acid dissociation constant) in data set [1] (KCl (0.1 M)) was found to be 3.43. In data set [1] (pKa2, KCl (0.1 M)), the pKa was determined as 9.81. Besides, in data set [2], the “Log β2” value worked out at 26.35, the “Log β3” value is 35.83, the “Log β1” value is listed as 14.93 and the “pFe^3+” value was 19.14.

Take `COc1ccccc1C(=O)NCCn1ccc(=O)c(O)c1C` [Compound 8b]: at MAO-B, the inhibition at 0.1 µM amounted to 38.8 ± 1.16% and the inhibition at 1 µM was found to be 59.9 ± 1.57%. In addition, the pKa in data set [1] (KCl (0.1 M)) is 3.41. In addition, in data set [1] (pKa2, KCl (0.1 M)), the pKa stood at 9.88. For the same compound, in data set [2], the “Log β2” value amounted to 26.20, the “Log β3” value was 35.45, the “Log β1” value is listed as 14.64 and the “pFe^3+” value was 18.56.

Compound `COc1cccc(C(=O)NCCn2ccc(=O)c(O)c2C)c1` [Compound 8c] had a melting point of 218 to 220 °C. Moreover, on MAO-B, the inhibition at 0.1 µM was determined as 31.9 ± 0.85% and the inhibition at 1 µM was found to be 59.97 ± 0.14%. The same compound gave a pKa in data set [1] (KCl (0.1 M)) of 3.37. In data set [1] (pKa2, KCl (0.1 M)), this compound displayed a pKa of 9.83. In data set [2], the “Log β2” value is given as 26.17, the “Log β3” value came to 35.55, the “Log β1” value is 14.68 and the “pFe^3+” value is 18.80.

Turning to `COc1ccc(C(=O)NCCn2ccc(=O)c(O)c2C)cc1` [Compound 8d], the melting point fell in the range of 241 to 243 °C. For the same compound, on MAO-B, the inhibition at 0.1 µM came to 36.02 ± 0.15%, the inhibition at 1 µM is 63 ± 3.9% and the half-maximal inhibitory concentration (IC50) is 0.2108 ± 0.00121 µM. This compound also came in with a pKa in data set [1] (KCl (0.1 M)) of 3.34. The pKa in data set [1] (pKa2, KCl (0.1 M)) was determined as 9.82. Besides, in data set [2], the “Log β2” value was determined as 25.95, the “Log β3” value came to 35.25, the “Log β1” value was determined as 14.52 and the “pFe^3+” value is 18.53.

Compound `Cc1c(O)c(=O)ccn1CCNC(=O)c1ccccc1OCc1ccccc1` [Compound 8e] gave a melting point of 180 to 182 °C. Besides, at MAO-B, the inhibition at 0.1 µM amounted to 33.1 ± 1.43% and the inhibition at 1 µM was determined as 51.5 ± 1.06%. In data set [1] (KCl (0.1 M)), the pKa was 3.38. The compound also showed a pKa in data set [1] (pKa2, KCl (0.1 M)) of 9.99. In addition, in data set [2], the “Log β2” value is reported as 26.46, the “Log β3” value stood at 35.64, the “Log β1” value turned out to be 14.66 and the “pFe^3+” value was 18.43.

`Cc1c(O)c(=O)ccn1CCNC(=O)c1cccc(OCc2ccccc2)c1` [Compound 8f] showed a melting point of 178 to 180 °C. Besides, at MAO-B, the inhibition at 0.1 µM was determined as 37.9 ± 1.22% and the inhibition at 1 µM is 54.57 ± 0.51%. This compound also came in with a pKa in data set [1] (KCl (0.1 M)) of 3.38. Also, in data set [1] (pKa2, KCl (0.1 M)), the pKa was found to be 9.92. Besides, in data set [2], the “Log β2” value came to 26.85, the “Log β3” value came to 35.33, the “Log β1” value is recorded as 14.75 and the “pFe^3+” value was 18.38.

On to `CCOc1ccc(C(=O)NCCn2ccc(=O)c(O)c2C)cc1` [Compound 8h], for which the melting point is 246 to 248 °C. Also, at MAO-B, the inhibition at 0.1 µM was found to be 48.1 ± 1.57%, the inhibition at 1 µM was determined as 66.75 ± 0.34% and the half-inhibitory concentration (IC50) was 0.119 ± 0.00276 µM. The pKa in data set [1] (KCl (0.1 M)) amounted to 3.27. Besides, the pKa in data set [1] (pKa2, KCl (0.1 M)) was found to be 9.8. Also, in data set [2], the “Log β2” value is reported as 26.06, the “Log β3” value is 35.33, the “Log β1” value turned out to be 14.67 and the “pFe^3+” value was 18.67.

With `CCCOc1ccc(C(=O)NCCn2ccc(=O)c(O)c2C)cc1` [Compound 8i], the melting point lay in the range of 214 to 243 °C. Moreover, on MAO-B, the inhibition at 0.1 µM was above 50%, the inhibition at 1 µM worked out at 53.41 ± 0.31% and the IC50 is 0.0891 ± 0.0101 µM. Further, the pKa in data set [1] (KCl (0.1 M)) is 3.41. The compound also gave a pKa in data set [1] (pKa2, KCl (0.1 M)) of 9.84. In addition, in data set [2], the “Log β2” value is reported as 25.98, the “Log β3” value was found to be 35.18, the “Log β1” value is 14.56 and the “pFe^3+” value is recorded as 18.40.

Consider `C#CCOc1ccc(C(=O)NCCn2ccc(=O)c(O)c2C)cc1` [Compound 8j], for which the melting point fell in the range of 208 to 210 °C. Besides, on MAO-B, the inhibition at 0.1 µM came to 38.7 ± 0.94% and the inhibition at 1 µM worked out at 58.6 ± 1.18%. The same compound gave a pKa in data set [1] (KCl (0.1 M)) of 3.41. Further, in data set [1] (pKa2, KCl (0.1 M)), the pKa was found to be 9.88. Besides, in data set [2], the “Log β2” value is recorded as 26.14, the “Log β3” value came out at 35.24, the “Log β1” value was determined as 14.67 and the “pFe^3+” value is reported as 18.35.

The compound `Cc1c(O)c(=O)ccn1CCNC(=O)c1ccc(OCC2CCCCC2)cc1` [Compound 8k] registered a melting point of 274 to 276 °C. Also, at MAO-B, the inhibition at 0.1 µM worked out at 39.5 ± 2.38%, the inhibition at 1 µM was 63.3 ± 0.92% and the IC50 came to 0.189 ± 0.00751 µM. In data set [1] (KCl (0.1 M)), this compound returned a pKa of 3.21. For the same compound, the pKa in data set [1] (pKa2, KCl (0.1 M)) was 9.89. Moreover, in data set [2], the “Log β2” value stood at 26.31, the “Log β3” value amounted to 35.84, the “Log β1” value was 14.44 and the “pFe^3+” value was 18.91.

In the case of `Cc1c(O)c(=O)ccn1CCNC(=O)c1ccc(OCc2cccc(F)c2)cc1` [Compound 8l], on MAO-B, the inhibition at 0.1 µM was above 50%, the inhibition at 1 µM is above 80% and the IC50 came out at 0.0964 ± 0.00678 µM. The compound also had a pKa in data set [1] (KCl (0.1 M)) of 3.51. In data set [1] (pKa2, KCl (0.1 M)), this compound gave a pKa of 9.74. Further, in data set [2], the “Log β2” value is 26.72, the “Log β3” value is on record as 35.87, the “Log β1” value came to 14.76 and the “pFe^3+” value is given as 19.39.

For the compound `Cc1c(O)c(=O)ccn1CCNC(=O)c1ccc(OCc2ccc(F)cc2)cc1` [Compound 8m], the melting point was 254 to 256 °C. Also, at MAO-B, the inhibition at 0.1 µM is above 50%, the inhibition at 1 µM amounted to 70.9 ± 2.51% and the IC50 was 0.0828 ± 0.0008 µM. The pKa in data set [1] (KCl (0.1 M)) amounted to 3.62. The same compound had a pKa in data set [1] (pKa2, KCl (0.1 M)) of 9.76. In addition, in data set [2], the “Log β2” value came to 26.77, the “Log β3” value was 35.31, the “Log β1” value is on record as 15.03 and the “pFe^3+” value was 18.81.

As for `Cc1c(O)c(=O)ccn1CCNC(=O)c1ccc(OCc2ccc(Cl)cc2)cc1` [Compound 8o], at MAO-B, the inhibition at 0.1 µM was found to be 48.5 ± 4.37%, the inhibition at 1 µM came out at 63.6 ± 4.14% and the IC50 turned out to be 0.139 ± 0.00174 µM. In data set [1] (KCl (0.1 M)), the pKa was determined as 3.33. The compound also registered a pKa in data set [1] (pKa2, KCl (0.1 M)) of 9.63. In data set [2], the “Log β2” value is 26.09, the “Log β3” value is recorded as 34.55, the “Log β1” value amounted to 14.43 and the “pFe^3+” value is on record as 18.44.

For the compound `Cc1c(O)c(=O)ccn1CCNC(=O)c1ccc(OCc2cc(F)cc(F)c2)cc1` [Compound 8q], on MAO-B, the inhibition at 0.1 µM worked out at 49.7 ± 4.22%, the inhibition at 1 µM came to 63.9 ± 0.67% and the IC50 was determined as 0.0938 ± 0.00648 µM. The same compound registered a pKa in data set [1] (KCl (0.1 M)) of 3.27. For the same compound, the pKa in data set [1] (pKa2, KCl (0.1 M)) is 9.82. In data set [2], the “Log β2” value stood at 26.63, the “Log β3” value was 35.73, the “Log β1” value amounted to 14.61 and the “pFe^3+” value is recorded as 19.01.

As to `Cc1cccc(COc2ccc(C(=O)NCCn3ccc(=O)c(O)c3C)cc2)c1` [Compound 8s], on MAO-B, the inhibition at 0.1 µM was found to be 49.3 ± 2.58%, the inhibition at 1 µM amounted to 71.3 ± 1.02% and the IC50 is 0.1223 ± 0.00021 µM. In data set [1] (KCl (0.1 M)), this compound showed a pKa of 3.31. Moreover, in data set [1] (pKa2, KCl (0.1 M)), the pKa was found to be 9.86. Also, in data set [2], the “Log β2” value is listed as 26.67, the “Log β3” value was determined as 35.67, the “Log β1” value turned out to be 14.67 and the “pFe^3+” value is on record as 18.85.

Source of the values: article PMC8510601, “Discovery of benzamide-hydroxypyridinone hybrids as potent multi-targeting agents for the treatment of Alzheimer's disease” (Journal of Enzyme Inhibition and Medicinal Chemistry, 2021).
